We go through three compounds from the NIST ThermoML archive (doi:10.1016/j.fluid.2015.11.009).

For data set [1] the following is noted: 298.15 K; 101.33 kPa; Liquid; Pycnometric method.
The nature of data set [2]: refractive index (Na D-line) (dimensionless). To be noted: 298.15 K; 101.33 kPa; Liquid; Standard Abbe refractometry.

± gives the expanded uncertainty stated by the source.

By mass density is commonly meant the mass of a sample divided by its volume. By refractive index is commonly meant a measure of how strongly the sample bends light.

As for `COCOCOC` [2,4,6-trioxaheptane], the mass density in data set [1] is recorded as 957.8 ± 0.3 kg/m3. Besides, in data set [2], the refractive index worked out at 1.3789 ± 0.0004.

On to `CCCCO` [butan-1-ol], for which the mass density in data set [1] is 805.2 ± 0.3 kg/m3. Further, in data set [2], the refractive index is listed as 1.3967 ± 0.0004. For `O` [water], the refractive index in data set [2] was determined as 1.3325 ± 0.0004.
